Laboratory results reported in patent US20200325183A1, “NS2B AS MARKER FOR ZIKA VIRUS INFECTIONS” (priority 2017, published 2020).
Ends that are not written are not given here.

Experiments:
Assay type in all cases: binding, human
[1] = system: IgM antibodies in Zika acute and convalescent plasma samples; test: Full substitution scan peptide microarray, IgM; details: data not shown
Description: In a second screening round of the second study, microarrays with peptide substitution scans of linear WT peptide […] (SEQ ID NO. 9) and cyclic WT peptide KDAEVTGNS (SEQ ID NO. 10) were used to determine essential, conserved and less-conserved/variable amino acid positions and to identify stronger responding peptide variants. Each amino acid position in the WT sequence was systematically exchanged by all 20 physiologic amino acids, and the resulting linear and cyclic peptides and peptide variants were printed in triplicate on the peptide substitution scan microarrays. The immunoreactivity of the peptide variants was tested by incubation with Zika acute and convalescent plasma samples. The assays were carried out in a multiplexed format with fluorescently labeled secondary anti-human IgG and anti-human IgM antibodies to simultaneously analyze the IgG and IgM profiles of each sample.
A substitution analysis was performed with the WT peptide […] (SEQ ID No. 9) and cyclic peptide KDAEVTGNS (SEQ ID NO. 10) to determine essential, conserved and less-conserved/variable amino acid positions and to identify stronger reacting peptide variants.
Each amino acid position in the WT sequence was systematically exchanged by all 20 physiologic amino acids, and the resulting peptides and peptide variants were printed in triplicate on peptide microarrays. […]

[2] = system: IgG antibodies in plasma of Zika virus patients; test: Proteome-wide Zika virus peptide microarray, second study, IgG; details: plasma 1:250, acute and convalescent samples
Description: (§1) In a second more extended study, the inventors further characterized the IgG and IgM antibody profiles of Zika patients in a more comprehensive manner Therefore, they translated the proteomes of 19 Zika virus strains taken from sequencing data from Nicaragua, Colombia, Guatemala, Honduras, Mexico and Panama 100 additional Zika virus proteomes from the USA with a higher sequence heterogeneity into 4,356 different overlapping Zika virus peptides printed in duplicate on high-density peptide arrays for a high-resolution proteome-wide epitope screening.
(§2) The inventors used plasma of 100 Zika virus patients with a confirmed dengue virus naïve status in the acute and convalescent phase (200 samples), plasma of 50 Zika virus patients with a confirmed dengue virus positive status in the acute and convalescent phase (100 samples), 50 plasma samples of dengue virus patients in the convalescent phase taken before the Zika virus outbreak as disease control and plasma of 25 individuals with a confirmed dengue virus and Zika virus negative status as healthy controls. […] The multiplexed IgG and IgM analysis was enabled by highly specific fluorescently labeled anti-human IgG and anti-human IgM secondary antibodies with different fluorescence wavelengths for emission and detection. […]

[3] = system: IgG antibodies in sera of Zika patients; test: Peptide microarray IgG screening, first study (ZIKV proteome / NS1, NS2a, NS2b arrays)
Description: In a first study, the inventors characterized the antibody profiles of Zika patients in a systematic manner. Therefore, they translated the proteomes of 15 different ZIKV strains (taken from the NCBI database, see Table 1 below) in the form of overlapping peptides as high-density peptide arrays and used 84 different patient and control sera to screen several thousands of potential antigens for pathogen induced antibodies.
In addition, the inventors investigated the time-dependent antibody variation in patients (acute vs. convalescent stage). They screened patient sera from their collaboration partner in Brazil with different peptide arrays, containing the whole proteome of the ZIKV (first screening round). […] Almost no signals could be observed in control samples. […]
In the first study, sera were diluted 1:1000 in PBS buffer with 0.05% Tween 20 pH 7.4 (PBST) and 10% blocking buffer, incubating the sera for 16 h at 4° C. and 50 RPM orbital shaking. […] Image analysis and quantification was performed with the PepSlide Analyzer software (Sicasys Software GmbH, Heidelberg, Germany).
Samples used for the peptide array experiments of the first study were collected from individuals with acute febrile illnesses enrolled in a prospective cohort study from May 2015 to April 2016. […] For molecular viral diagnosis, quantitative real-time PCR (qRT-PCR) for Dengue (DENV) and Zika (ZIKV) viruses was performed. […]

[4] = system: IgM antibodies in plasma of Zika virus patients; test: Proteome-wide Zika virus peptide microarray, second study, IgM; details: plasma 1:250, acute and convalescent samples
Description: as §1, §2

[5] = system: IgG antibodies in sera of Zika acute and Zika convalescent patients; test: Chemiluminescence peptide ELISA; details: serum dilution 1:1000, Zika acute and convalescent patient sera
Procedure: The cyclic peptides and WT peptide were tested by a chemiluminescence ELISA using sera of Zika acute and Zika convalescent patients. A healthy control (HC) sera was included. The ELISA assays were performed under stringent conditions, that is at high serum dilutions (1:1000) to better evaluate the diagnostic potential of the peptide marker. The ELISA results are given in chemiluminescence units (CLUs). Samples were considered as positive, if the CLU of a respective sera is >=2 times over HC value.
For ELISA tests, four cyclic peptides with a Biotin tag preceding the C-terminal cysteine residue were synthesized. The non-cyclic WT peptide (“WT peptide”) was synthesized with a C-terminal Biotin tag at the C-terminus, the amino acid sequence was identical to SEQ ID NO. 9.
Peptide ELISA-Tests were performed on Streptavidin functionalized 96 well microtiterplates (Lumitrac, Greiner BioOne, Germany). The plates were coated with the respective biotinylated peptides with a biotin tag positioned at the C-terminus, preceding the C-terminal cysteine. The plates were incubated overnight at 4° C. with test sera at a dilution of 1:1000 (v/v) in PBST/10% Rockland (PBST=Phosphate buffered saline pH 7.2, 0.05% Tween 20). […] The chemiluminescence was measured after 10 minutes at 425 nm using an automated plate reader (CLARIOstar®. BMG LABTECH GmbH, Germany). […]

| Substance | IgM reactivity in substitution scan [1] | IgG response, proteome-wide microarray [2] | IgG antibody reactivity of Zika patients against the whole ZIKV proteome ([3]; first screening round, arrays with whole proteome content, sera 1:1000) | IgG antibody reactivity, specific arrays with NS1, NS2a, NS2b content ([3]; second screening round) | IgM response, proteome-wide microarray [4] | IgG reactivity in chemiluminescence ELISA (positive if CLU >=2 times over HC value) [5] |
| --- | --- | --- | --- | --- | --- | --- |
| KDAEVTGNS (also: cyclic) [SEQ ID NO. 10, cyclic WT peptide on substitution scan microarrays] | not a single human sample exhibited any specific IgM reactivity | – | – | – | – | – |
| NS2b: Zika virus non-structural protein NS2b, cofactor of NS3 protease, displayed as overlapping 15-mer peptides on arrays | – | specific IgG responses | most prominent interaction | clear signals | no specific IgM response | – |
| WEKDAEVTGNSPRLD [WT peptide] | not a single human sample exhibited any specific IgM reactivity | – | – | – | – | detected Zika specific antibody responses in acute patient sera as well as in convalescent patient sera |
